# Source: ChEMBL document CHEMBL1150486, “Dihydro-imidazolone derivatives as angiotensin II receptor antagonists: chiral effect on the activity” (Bioorg Med Chem Lett, 1994)
# How the values were obtained:
# Oryctolagus cuniculus = species on record: Oryctolagus cuniculus; assay: Antagonism of the AII induced contraction of rabbit aortic tissue in a functional assay; settings: Aorta
# [1] = target: T1, Type-1 angiotensin II receptor B (Rattus norvegicus, UniProt P29089); assay: In vitro binding affinity at Angiotensin II receptor, type 1 from rat liver membrane by [125I]- A II displacement.
# T1 sequence (P29089 whole entry): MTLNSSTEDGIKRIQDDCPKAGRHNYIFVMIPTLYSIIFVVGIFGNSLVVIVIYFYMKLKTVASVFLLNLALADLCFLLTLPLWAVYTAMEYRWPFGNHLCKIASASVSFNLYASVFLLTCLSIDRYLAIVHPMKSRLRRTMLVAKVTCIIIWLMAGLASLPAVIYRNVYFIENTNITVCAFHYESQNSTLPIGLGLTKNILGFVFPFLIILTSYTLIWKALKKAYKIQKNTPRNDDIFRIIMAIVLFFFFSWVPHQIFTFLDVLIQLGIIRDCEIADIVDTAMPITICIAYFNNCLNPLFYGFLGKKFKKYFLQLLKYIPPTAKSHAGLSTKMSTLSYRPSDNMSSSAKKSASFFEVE
IC50 (Oryctolagus cuniculus) [nM],IC50 [1] [nM],Structure (SMILES)
9.6,3.3,CCCCC1=NC(C)(C2CCCC2)C(=O)N1Cc1ccc(-c2ccccc2C(=O)O)cc1 (centres undefined)
130,19,CCCCC1=NC(C)(c2ccccc2)C(=O)N1Cc1ccc(-c2ccccc2C(=O)O)cc1 (centres undefined)
